The nature of this test: Dissociation constant for the binding of compound to concanavalin A (Con A) was determined by fluorescence anisotropy inhibition assay. In general terms: Polarisation of emitted light reports the rotation of a fluorescent probe.

Consider `OC[C@@H]1O[C@H](O[C@@H]2[C@@H](O)[C@@H](O)O[C@@H](CC[C@H]3S[C@@H](CO)[C@@H](O)[C@H](O)[C@H]3O)[C@H]2O)[C@H](O)[C@@H](O)[C@@H]1O`, for which binding was put at a Kd of 31 µM.

`OC[C@@H]1O[C@H](CC[C@@H]2O[C@H](O)[C@H](O)[C@@H](O[C@H]3O[C@@H](CO)[C@@H](O)[C@H](O)[C@H]3O)[C@@H]2O)[C@H](O)[C@@H](O)[C@@H]1O`: the Kd – broadly, the concentration at which binding is half-saturated – worked out at 198 µM.
